From ChEMBL document CHEMBL1955864, “N-1 and C-3 substituted indole Schiff bases as selective COX-2 inhibitors: synthesis and biological evaluation” (Bioorg Med Chem Lett, 2012)

Target: T1, Prostaglandin G/H synthase 1 (Ovis aries, UniProt P05979)
T1 sequence (P05979 whole entry): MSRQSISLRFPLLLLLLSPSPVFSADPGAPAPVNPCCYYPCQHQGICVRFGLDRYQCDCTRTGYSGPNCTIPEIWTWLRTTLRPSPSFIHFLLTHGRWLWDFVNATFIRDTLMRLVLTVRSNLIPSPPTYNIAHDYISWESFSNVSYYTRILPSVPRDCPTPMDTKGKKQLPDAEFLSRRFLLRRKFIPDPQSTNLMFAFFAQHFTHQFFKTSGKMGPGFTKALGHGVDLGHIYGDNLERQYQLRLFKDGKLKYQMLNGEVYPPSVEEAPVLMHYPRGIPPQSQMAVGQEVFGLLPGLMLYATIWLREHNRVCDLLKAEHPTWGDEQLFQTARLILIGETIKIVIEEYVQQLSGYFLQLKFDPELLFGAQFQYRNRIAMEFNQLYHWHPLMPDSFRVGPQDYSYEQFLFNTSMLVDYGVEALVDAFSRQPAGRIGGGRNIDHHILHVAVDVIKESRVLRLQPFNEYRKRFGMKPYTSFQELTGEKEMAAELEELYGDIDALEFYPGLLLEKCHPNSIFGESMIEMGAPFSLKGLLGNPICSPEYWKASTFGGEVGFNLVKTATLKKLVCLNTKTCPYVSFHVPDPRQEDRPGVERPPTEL
Assay: Inhibition of ovine COX-1 by enzyme immuno assay

SMILES | IC50 [µM]
Fc1ccc(/N=C/c2c[nH]c3ccccc23)cc1 | 68.4
Cc1ccc(/N=C/c2c[nH]c3ccccc23)cc1 | 62.3
FC(F)(F)c1ccc(/N=C/c2c[nH]c3ccccc23)cc1 | 78.2
Fc1ccc(/N=C/c2cn(Cc3ccccc3)c3ccccc23)cc1 | 91.1
Cc1ccc(/N=C/c2cn(Cc3ccccc3)c3ccccc23)cc1 | 81.5
FC(F)(F)c1ccc(/N=C/c2cn(Cc3ccccc3)c3ccccc23)cc1 | 95.5
O=C(c1ccccc1)n1cc(/C=N/c2ccc(F)cc2)c2ccccc21 | > 100
Cc1ccc(/N=C/c2cn(C(=O)c3ccccc3)c3ccccc23)cc1 | 80.2
O=C(c1ccccc1)n1cc(/C=N/c2ccc(C(F)(F)F)cc2)c2ccccc21 | > 100
O=C(c1ccccc1)n1cc(/C=N/c2ccc(Cl)cc2)c2ccccc21 | 86.1
